# Patent US5525591A, “Endoparasiticidal compositions based on open-chain octadepsipeptides” (Bayer Aktiengesellschaft, priority 1993, dated 1996)
# Test system: Haemonchus contortus
# Test: In vivo nematode test Haemonchus contortus/sheep
# Conditions: sheep infected experimentally with Haemonchus contortus, treated after prepatency period; pure active compound applied orally and/or intravenously; dose at which nematode egg excretion with the faeces stopped completely
# Procedure: In vivo nematode test Haemonchus contortus/sheep
# The degree of effectiveness is determined by quantitatively determinating the nematode eggs excreted with the faeces before and after the treatment.
substance,measurement,value
tert-Butyl-N-Benzyl-N-propyl-L-leucyl-D-lactyl-N-^i -propyl-L-leucyl-D-3-phenyllactyl-N-^i propyl-L-leucyl-D-lactyl-N-^i propyl-L-leucyl-D-3-phenyllactate [Example 2],Dosis effectiva,10 mg/kg
